Columns and labels:
[1] = target: native H3 receptors from rat cerebral cortices (Rattus norvegicus (Rat), UniProt Q9QYN8); assay: H3 receptor competition binding with [3H]-N-α-methylhistamine, rat cerebral cortex membranes; details: [3H]-N-α-methylhistamine competition binding
Method: Aliquots were frozen at −70° C. until needed.
Membrane preparations were incubated with [^3H]-N-α-methylhistamine (0.5-1.0 nM) in the presence or absence of increasing concentrations of ligands for H3 receptor competition binding. The binding incubations were conducted in a final volume of 0.5 mL TE buffer at 25° C. and were terminated after 30 minutes. Thioperamide (30 μM) was used to define non-specific binding. All binding reactions were terminated by filtration under vacuum onto polyethylenimine (0.3%) presoaked Unifilters (Perkin Elmer Life Sciences) or Whatman GF/B filters followed by three brief washes with 2 mL of ice-cold TE buffer. Bound radiolabel was determined by liquid scintillation counting. For all of the radioligand competition binding assays, IC50 values and Hill slopes were determined by Hill transformation of the data and pKi values were determined by the Cheng-Prusoff equation.

[2] = test system: locomotor stimulation induced by amphetamine; details: animals; Clapham J., et al. 1994; cited from earlier work

native H3 receptors from rat cerebral cortices, sequence (Q9QYN8 whole entry): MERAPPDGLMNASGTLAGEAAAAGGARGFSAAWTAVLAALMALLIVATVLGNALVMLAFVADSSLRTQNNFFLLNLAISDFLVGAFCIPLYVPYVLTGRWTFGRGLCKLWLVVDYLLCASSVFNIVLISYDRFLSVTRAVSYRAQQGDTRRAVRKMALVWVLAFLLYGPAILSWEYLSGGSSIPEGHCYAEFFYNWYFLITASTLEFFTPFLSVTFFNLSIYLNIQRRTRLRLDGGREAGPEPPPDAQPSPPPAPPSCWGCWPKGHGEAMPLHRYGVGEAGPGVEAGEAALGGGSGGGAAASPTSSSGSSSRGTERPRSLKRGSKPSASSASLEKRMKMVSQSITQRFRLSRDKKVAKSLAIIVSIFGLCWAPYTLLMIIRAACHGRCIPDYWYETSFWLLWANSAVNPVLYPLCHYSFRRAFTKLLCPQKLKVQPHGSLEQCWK

SMILES | Ki [1] [pM] | rat cortex (pKi) [1] | effect on amphetamine-induced locomotor stimulation [2]
CC1=C(c2ccc(OCCCN3CCCCC3)cc2)SC2=NCc3ccccc3CN21 [Example 2, 3-methyl-2-[4-(3-piperidin-1-ylpropoxy)phenyl]-5,10-dihydro[1,3]thiazolo[3,2-b][2,4]benzodiazepine] | 50 | 10.3 | 
S=C(NC1CCCCC1)N1CCC(c2cnc[nH]2)CC1 [thioperamide] |  |  | suppresses the locomotor stimulation induced by amphetamine
CC1=C(c2ccc(OCCCN3CCC[C@H]3C)cc2)SC2=NCc3ccccc3CN21 [Example 3, 3-methyl-2-(4-{3-[(2R)-2-methylpyrrolidin-1-yl]propoxy}phenyl)-5,10-dihydro[1,3]thiazolo[3,2-b][2,4]benzodiazepine] | 20 | 10.7 | 
CC1=C(c2ccc(OCCCN3CCOCC3)cc2)SC2=NCc3ccccc3CN21 [Example 4, 3-methyl-2-[4-(3-morpholin-4-ylpropoxy)phenyl]-5,10-dihydro[1,3]thiazolo[3,2-b][2,4]benzodiazepine] | 324 | 9.49 | 

Source: patent US9181275B2, “Mercaptoamidine derivatives and methods of use” (AbbVie Inc., priority 2011, dated 2015)
